Earlier results, collected in patent US7590494B1, “Drug design based on the structure of LTA4 hydrolase” (priority 1999, dated 2009).

Target: T1, LTA4 hydrolase (Homo sapiens, UniProt P09960)
T1 sequence (P09960 1-611): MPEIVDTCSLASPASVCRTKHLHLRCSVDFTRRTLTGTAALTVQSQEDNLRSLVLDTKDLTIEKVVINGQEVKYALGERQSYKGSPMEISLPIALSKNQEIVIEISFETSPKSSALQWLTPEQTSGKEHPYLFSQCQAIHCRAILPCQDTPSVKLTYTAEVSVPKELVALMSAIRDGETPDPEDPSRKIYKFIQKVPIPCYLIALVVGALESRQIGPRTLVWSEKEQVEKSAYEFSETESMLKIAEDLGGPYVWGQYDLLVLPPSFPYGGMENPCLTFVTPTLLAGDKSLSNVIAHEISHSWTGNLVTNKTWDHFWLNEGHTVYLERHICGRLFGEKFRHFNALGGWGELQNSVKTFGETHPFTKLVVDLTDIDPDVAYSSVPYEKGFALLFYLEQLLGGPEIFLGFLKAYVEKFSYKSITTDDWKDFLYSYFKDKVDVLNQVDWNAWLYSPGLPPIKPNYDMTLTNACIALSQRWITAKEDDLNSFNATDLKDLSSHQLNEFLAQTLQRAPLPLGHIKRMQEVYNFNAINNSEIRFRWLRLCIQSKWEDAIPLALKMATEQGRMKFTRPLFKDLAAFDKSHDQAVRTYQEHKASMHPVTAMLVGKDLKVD
Settings: qualitative statement from Örning et al. 1991

Row | inhibition of LTA4 hydrolase | Compound
1 | inhibited | CC(C)C[C@H](NC(=O)[C@@H](O)[C@H](N)Cc1ccccc1)C(=O)O [bestatin]
2 | inhibited | C[C@H](CS)C(=O)N1CCC[C@H]1C(=O)O [captopril]
